Experimental findings from ChEMBL document CHEMBL1800011, “Anti-leishmanial activity of disubstituted purines and related pyrazolo[4,3-d]pyrimidines” (Bioorg Med Chem Lett, 2011) are described below.

For assay [1], the system named is Leishmania donovani. Put plainly: Antileishmanial activity against axenic amastigotes of Leishmania donovani MHOM/SD/1962/1S-Cl2d after 24 hrs by alamar Blue viability assay. Type of assay: functional, organism-based. In general terms: Alamar Blue is a resazurin reagent that responds to reducing activity.
Assay [2] concerns Leishmania donovani. Put plainly: Inhibition of Leishmania donovani CRK3/CYC6 activity expressed in Escherichia coli using 15 uM ATP at 30 uM.
For assay [3], the system named is Leishmania donovani. The assay is described as follows: Antileishmanial activity against axenic amastigotes of Leishmania donovani MHOM/SD/1962/1S-Cl2d at 30 uM after 24 hrs by alamar Blue viability assay. Type of assay: functional.
Assay [4] in a line: Inhibition of Leishmania donovani CRK3/CYC6 activity expressed in Escherichia coli using 15 uM ATP.

The compound `CC(C)=CCNc1ncnc2c(C(C)C)n[nH]c12` registered an EC50 in assay [1] of 85 µM. In addition, the inhibition in assay [2] came to 32.5%. Also, the inhibition at 30 µM in assay [3] is 45.5%. For the same compound, the IC50 in assay [4] is 57.2 µM.

Regarding `CC(C)c1n[nH]c2c(NC3CCCCC3N)ncnc12` (stereo unspecified), the EC50 in assay [1] was more than 100 µM. Further, in assay [2], the inhibition came to 2.4%. Also, the inhibition at 30 µM in assay [3] was 15.8%. In assay [4], this compound gave an IC50 of more than 100 µM.

Turning to `COc1cc(CNc2ncnc3c2ncn3C(C)C)ccc1O`, in assay [2], the inhibition is 11.9%. In addition, in assay [3], the inhibition at 30 µM was 9.5%. In assay [4], the IC50 was more than 100 µM.

With `CC(C)n1cnc2c(NCc3cccc(O)c3)ncnc21`, in assay [2], the inhibition came out at 8.8%. The inhibition at 30 µM in assay [3] amounted to 6.5%. The IC50 in assay [4] was more than 100 µM.

In assay [1], `CC(C)c1n[nH]c2c(Nc3ccc(F)cc3)ncnc12` showed a 50% effective concentration (EC50) of 11.6 µM. Besides, the inhibition in assay [2] was determined as 78.8%. The inhibition at 30 µM in assay [3] came to 75.8%. The IC50 in assay [4] amounted to 6.8 µM.

Turning to `COc1cc(CNc2ncnc3c(C(C)C)n[nH]c23)ccc1O`, the concentration for a half-maximal effect (EC50) in assay [1] was more than 100 µM. In addition, the inhibition in assay [2] is 41%. In addition, the inhibition at 30 µM in assay [3] stood at 10.4%. The compound further gave an IC50 in assay [4] of 100 µM.

Consider `CCCCCNc1ncnc2c1ncn2C(C)C`, for which the inhibition in assay [2] was found to be 14.8%. Besides, in assay [3], the inhibition at 30 µM is 22.6%. This compound also registered a concentration for half-maximal inhibition (IC50) in assay [4] of more than 100 µM.

Take `CC(C)n1cnc2c(Nc3ccccc3Br)ncnc21`: the inhibition in assay [2] was 1.8%. Moreover, in assay [3], the inhibition at 30 µM came out at 26.2%. Besides, in assay [4], the concentration for half-maximal inhibition (IC50) was more than 100 µM.

In assay [1], `COc1ccc(CNc2ncnc3c(C(C)C)n[nH]c23)cc1O` showed an EC50 of 94 µM. Moreover, in assay [2], the inhibition was found to be 46.8%. In addition, the inhibition at 30 µM in assay [3] is 34.3%. Moreover, the IC50 in assay [4] worked out at 28.2 µM.

Regarding `CC(C)n1cnc2c(Nc3ccc(F)cc3)ncnc21`, in assay [2], the inhibition was determined as 53.3%. Also, in assay [3], the inhibition at 30 µM was determined as 21.5%. Moreover, the IC50 in assay [4] worked out at 22.8 µM.

`CC(C)c1n[nH]c2c(Nc3cccc(F)c3)ncnc12` gave an EC50 in assay [1] of 23.2 µM. The inhibition in assay [2] stood at 70.4%. In addition, the inhibition at 30 µM in assay [3] was found to be 66.6%. In assay [4], this compound came in with a concentration for half-maximal inhibition (IC50) of 14.6 µM.

With `CC(C)n1cnc2c(NCc3ccccc3N)ncnc21`, in assay [2], the inhibition was determined as 11%. In addition, the inhibition at 30 µM in assay [3] is 6.6%. The same compound gave a half-maximal inhibitory concentration (IC50) in assay [4] of more than 100 µM.

For the compound `CC(C)n1cnc2c(NCc3ccccc3)ncnc21`, the inhibition in assay [2] came to 18.5%. The inhibition at 30 µM in assay [3] worked out at 19.9%. Besides, the IC50 in assay [4] was more than 100 µM.

Consider `CC(C)n1cnc2c(NC3CCC(N)CC3)ncnc21` (stereo unspecified), for which, in assay [2], the inhibition came out at 26.4%. Besides, in assay [3], the inhibition at 30 µM stood at 1%. The compound also had a half-maximal inhibitory concentration (IC50) in assay [4] of more than 100 µM.

For the compound `CC(C)n1cnc2c(NCc3ccco3)ncnc21`, the inhibition in assay [2] came to 3.5%. Also, the inhibition at 30 µM in assay [3] was determined as 14.5%. Besides, the half-inhibitory concentration (IC50) in assay [4] is more than 100 µM.

Turning to `COc1ccc(CNc2ncnc3c2ncn3C(C)C)cc1OC`, the inhibition in assay [2] was -2.3%. Moreover, in assay [3], the inhibition at 30 µM was found to be 1.9%. Moreover, in assay [4], the IC50 is more than 100 µM.

With `CC(C)c1n[nH]c2c(NCc3ccccc3)ncnc12`, a half-maximal response in assay [1] (EC50) required 68.6 µM. In addition, the inhibition in assay [2] came to 24.5%. The inhibition at 30 µM in assay [3] is 29.6%. In assay [4], this compound displayed an IC50 of 54.2 µM.

`COc1ccc(CNc2ncnc3c(C(C)C)n[nH]c23)cc1` displayed an EC50 in assay [1] of 83 µM. In assay [2], the inhibition is 36%. Moreover, the inhibition at 30 µM in assay [3] is 31.5%. In assay [4], the IC50 was found to be 75.5 µM.

As for `CC(C)n1cnc2c(NC34CC5CC(CC(C5)C3)C4)ncnc21`, the inhibition in assay [2] turned out to be 66.1%. The inhibition at 30 µM in assay [3] stood at 72%. This compound yielded an IC50 in assay [4] of 12.2 µM.

Take `COc1ccc(CNc2ncnc3c2ncn3C(C)C)cc1`: in assay [2], the inhibition was -6.9%. Besides, the inhibition at 30 µM in assay [3] came out at 15.1%. The compound also registered a half-maximal inhibitory concentration (IC50) in assay [4] of more than 100 µM.

Consider `COc1ccc(CNc2ncnc3c(C(C)C)n[nH]c23)cc1OC`, for which the EC50 in assay [1] is more than 100 µM. Moreover, the inhibition in assay [2] is 19.9%. Also, the inhibition at 30 µM in assay [3] is 8.4%. The same compound came in with a half-inhibitory concentration (IC50) in assay [4] of more than 100 µM.

`CC(C)c1n[nH]c2c(NC3CCC(N)CC3)ncnc12` (stereo unspecified) gave an EC50 in assay [1] of more than 100 µM. Also, the inhibition in assay [2] stood at 35%. Also, in assay [3], the inhibition at 30 µM was 3.3%. In assay [4], this compound showed an IC50 of more than 100 µM.

`CC(C)c1n[nH]c2c(NCc3ccccc3O)ncnc12` showed a half-maximal effective concentration (EC50) in assay [1] of 35.7 µM. For the same compound, in assay [2], the inhibition is 68%. Further, the inhibition at 30 µM in assay [3] worked out at 87.4%. In assay [4], half-maximal inhibition (IC50) was put at 11.9 µM.

In assay [1], `CC(C)c1n[nH]c2c(NCc3ccco3)ncnc12` gave a half-maximal effective concentration (EC50) of more than 100 µM. The inhibition in assay [2] was found to be 28.5%. Also, the inhibition at 30 µM in assay [3] was 16.6%. The IC50 in assay [4] is more than 100 µM.

Regarding `CC(C)c1n[nH]c2c(NCc3ccccc3N)ncnc12`, in assay [1], the EC50 is more than 100 µM. Besides, in assay [2], the inhibition was 42.3%. Moreover, in assay [3], the inhibition at 30 µM stood at 41.3%. This compound also returned an IC50 in assay [4] of 58.6 µM.

Compound `CC(C)c1n[nH]c2c(Nc3cccc(Cl)c3)ncnc12` gave an EC50 in assay [1] of 12.4 µM. Moreover, in assay [2], the inhibition was determined as 81.3%. Further, the inhibition at 30 µM in assay [3] stood at 73.3%. The same compound had an IC50 in assay [4] of 9.86 µM.

`CC(C)c1n[nH]c2c(NC34CC5CC(CC(C5)C3)C4)ncnc12` displayed an EC50 in assay [1] of 1.22 µM. In addition, the inhibition in assay [2] was 93.8%. The inhibition at 30 µM in assay [3] was 73.2%. This compound registered an IC50 in assay [4] of 1.82 µM.

`COc1ccc(CNc2ncnc3c2ncn3C(C)C)cc1O`: the inhibition in assay [2] is 11.2%. The inhibition at 30 µM in assay [3] turned out to be 8.8%. For the same compound, the IC50 in assay [4] was more than 100 µM.

With `CC(C)n1cnc2c(NC3CCCCC3N)ncnc21` (stereo unspecified), in assay [2], the inhibition is -5.4%. For the same compound, the inhibition at 30 µM in assay [3] came to 4.5%. In assay [4], this compound returned a half-maximal inhibitory concentration (IC50) of more than 100 µM.

For `CCCCCNc1ncnc2c(C(C)C)n[nH]c12`, the midpoint of the response in assay [1], the EC50, lay at 54.7 µM. Besides, the inhibition in assay [2] came to 46.5%. Besides, the inhibition at 30 µM in assay [3] came to 27.3%. In assay [4], this compound had a 50% inhibitory concentration (IC50) of more than 100 µM.

`CC(C)c1n[nH]c2c(Nc3ccccc3Br)ncnc12` registered an EC50 in assay [1] of 18.7 µM. The inhibition in assay [2] came to 35.6%. Further, the inhibition at 30 µM in assay [3] stood at 40.7%. For the same compound, 16.1 µM corresponded to half-maximal inhibition in assay [4] (IC50).

As to `CC(C)n1cnc2c(Nc3cccc(Cl)c3)ncnc21`, the inhibition in assay [2] came out at 22.3%. Besides, the inhibition at 30 µM in assay [3] came to 35.1%. This compound yielded a concentration for half-maximal inhibition (IC50) in assay [4] of more than 100 µM.

As to `CC(C)=CCNc1ncnc2c1ncn2C(C)C`, in assay [2], the inhibition amounted to 3.2%. Also, the inhibition at 30 µM in assay [3] was 0.04%. This compound also showed an IC50 in assay [4] of more than 100 µM.

For `CC(C)n1cnc2c(Nc3cccc(F)c3)ncnc21`, the inhibition in assay [2] worked out at 30.4%. Further, in assay [3], the inhibition at 30 µM is 16.5%. The compound also displayed an IC50 in assay [4] of 49.9 µM.

On to `CC(C)c1n[nH]c2c(NCc3cccc(O)c3)ncnc12`, for which the EC50 in assay [1] is more than 100 µM. For the same compound, the inhibition in assay [2] was 35.8%. The inhibition at 30 µM in assay [3] was 25.4%. Moreover, inhibition in assay [4] was half-maximal at 83.2 µM (IC50).

As to `CC(C)n1cnc2c(NCc3ccccc3O)ncnc21`, the inhibition in assay [2] is -2.8%. Further, the inhibition at 30 µM in assay [3] was 11.7%. In assay [4], this compound displayed an IC50 of more than 100 µM.

What is called EC50 is the concentration giving half of the maximal effect. A lower EC50 goes with higher potency in that assay. As usually defined, the inhibition is the change of the read-out against control, counted positive when it falls. A word on the IC50: it is the midpoint of a concentration-inhibition curve. High values mean weaker potency, low ones greater potency.
